In one series the target is Cx50 GJ channels (Mus musculus, UniProt P28236). In kind it is cell-based. Particulars: for effect on Cx50 junctional current: 10 μM; for IC50 Cx50 (μM): Table A1, alcohols, amines, nitriles and ureas; for Hill slope / Hill coefficient of Cx50 inhibition: fit to the Hill equation.
Another series concerns the target hKCa3.1 (Homo sapiens, UniProt O15554). In words: KCa3.1 current, whole-cell patch-clamp. Format: cell-based. A general note: In patch-clamp work, channel activity is measured electrically.
In the next series the target is Kv1.1 (Mus musculus, UniProt P16388). The series can be described thus: Kv1.1 current, whole-cell patch-clamp. Format: cell-based. Particulars: read-out: Percentage of current inhibition, Kv1.1.
In another series the test system is sodium channels. The series can be described thus: Summary of block of the tested sodium channels. Format: cell-based. Particulars: 10 μM; summary in discussion.
The target in the next series is Kv4.2 (Rattus norvegicus, UniProt Q63881). In words: Kv4.2 current, whole-cell patch-clamp. In kind it is cell-based. Particulars: read-out: Percentage of current inhibition, Kv4.2.
The next series addresses Kv11.1 (hERG) (Homo sapiens, UniProt Q12809). In words: Kv11.1. Format: cell-based. As to conditions: HEK-293 cells stably expressing Kv11.1 (hERG). (Block of hERG is tested as a sign of cardiac risk.)
For another series, the system named is potassium channels. The series can be described thus: Summary of block of the tested potassium channels. Format: cell-based. Particulars: 10 μM; summary in discussion.
The target in the next series is Kv3.1 (Mus musculus, UniProt P15388). In words: Kv3.1 current, whole-cell patch-clamp. As to conditions: read-out: Percentage of current inhibition, Kv3.1. Format: cell-based.
The target in another series is Cx26 GJ channels (Rattus norvegicus, UniProt P21994). The series can be described thus: Cx26 junctional current, dual whole-cell voltage-clamp in N2A cells. Format: cell-based. As to conditions: 10 μM.
Another series concerns the target Cx32 GJ channels (Rattus norvegicus, UniProt P08033). In words: Cx32 junctional current, dual whole-cell voltage-clamp in N2A cells. In kind it is cell-based. Particulars: 10 μM.
For another series, the target named is Nav1.2 (Mus musculus, UniProt B1AWN6). The series can be described thus: Nav1.2 current in N1E-115 cells, whole-cell patch-clamp. Particulars: N1E-115, read-out: Percentage of current inhibition, Nav1.2. In kind it is cell-based.
A further series deals with Kv7.2/7.3 (Homo sapiens, UniProt O43525+O43526). In words: Kv7.2/7.3 current, whole-cell patch-clamp. Format: cell-based. As to conditions: 10 μM.
The test system of series [1] is primary lens epithelial cells. The series can be described thus: Junctional currents between primary lens epithelial cells. Format: cell-based, mouse. Particulars: 10 μM; for reduction of junctional currents in lens epithelial cells, % of the initial conductance: mouse lenses postnatal day 6, means ± SEM.
A further series deals with Kv2.1 (Homo sapiens, UniProt Q14721). The series can be described thus: Kv2.1 current, whole-cell patch-clamp. In kind it is cell-based. Particulars: read-out: Percentage of current inhibition, Kv2.1.
In a further series the target is KCa1.1 (BK) (Homo sapiens, UniProt Q12791). In words: KCa1.1. In kind it is cell-based. Particulars: read-out: Percentage of current inhibition, KCa1.1 (BK).
For the next series, the target named is Nav1.4 (Homo sapiens, UniProt P35499). In words: Nav1.4 current, whole-cell patch-clamp. Format: cell-based. As to conditions: 10 μM.
For series [2], the target named is Cx45 gap junction channels (Homo sapiens, UniProt P36383). In words: Cx45 junctional current, dual whole-cell voltage-clamp. In kind it is cell-based. Particulars: 10 μM.
For another series, the system named is KCa2.3. In words: KCa2.3 current, whole-cell patch-clamp. In kind it is cell-based, human. Particulars: 10 μM.
The target in another series is Kv1.3 (Mus musculus, UniProt P16390). In words: Kv1.3 current, whole-cell patch-clamp. Format: cell-based. Particulars: read-out: Percentage of current inhibition, Kv1.3.
The target in the next series is P2x7 receptors. As to conditions: read-out: IC50, P2x7 receptors; ref Suadicani et al., 2006; cited from earlier work.
The subject of a further series is pannexin channels. As to conditions: read-out: IC50, pannexin channels; ref Locovei et al., 2007; cited from earlier work.
The target of series [3] is 11β-hydroxysteroid dehydrogenase. Particulars: read-out: IC50, 11β-hydroxysteroid dehydrogenase; ref Monder et al., 1989; cited from earlier work.
The next series relates to Cx26 hemichannel. Particulars: read-out: IC50, Cx26 hemichannel currents; Xenopus oocytes; literature value; cited from earlier work.
The test system of a further series is Cx38 hemichannel. As to conditions: read-out: IC50, Cx38 hemichannel currents; Xenopus oocytes; literature value; cited from earlier work.
The subject of series [4] is voltage-gated Ca^2+ currents. Particulars: read-out: IC50, voltage-gated Ca2+ currents; ref Vessey et al., 2004; cited from earlier work.
Where [5] appears, read: IC50 KCa3.1, Table 1, mean ± SD.

The structures appear in SMILES notation. Read-outs that look alike come from different tables or passages of the source. Bounds are passed on as bounds.

Cx50 GJ channels, sequence (P28236 whole entry): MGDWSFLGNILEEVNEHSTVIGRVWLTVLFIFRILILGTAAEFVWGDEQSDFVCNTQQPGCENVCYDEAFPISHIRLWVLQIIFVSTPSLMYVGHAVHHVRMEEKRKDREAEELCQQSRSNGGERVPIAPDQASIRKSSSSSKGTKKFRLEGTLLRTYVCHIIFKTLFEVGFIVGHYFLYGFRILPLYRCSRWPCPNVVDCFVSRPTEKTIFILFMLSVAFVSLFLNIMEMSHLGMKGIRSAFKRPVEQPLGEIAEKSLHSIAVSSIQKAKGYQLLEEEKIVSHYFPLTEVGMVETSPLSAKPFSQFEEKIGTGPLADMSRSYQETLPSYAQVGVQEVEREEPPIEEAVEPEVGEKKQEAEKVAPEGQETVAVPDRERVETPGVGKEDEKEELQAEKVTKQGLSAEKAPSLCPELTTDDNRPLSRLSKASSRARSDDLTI
hKCa3.1, sequence (O15554 whole entry): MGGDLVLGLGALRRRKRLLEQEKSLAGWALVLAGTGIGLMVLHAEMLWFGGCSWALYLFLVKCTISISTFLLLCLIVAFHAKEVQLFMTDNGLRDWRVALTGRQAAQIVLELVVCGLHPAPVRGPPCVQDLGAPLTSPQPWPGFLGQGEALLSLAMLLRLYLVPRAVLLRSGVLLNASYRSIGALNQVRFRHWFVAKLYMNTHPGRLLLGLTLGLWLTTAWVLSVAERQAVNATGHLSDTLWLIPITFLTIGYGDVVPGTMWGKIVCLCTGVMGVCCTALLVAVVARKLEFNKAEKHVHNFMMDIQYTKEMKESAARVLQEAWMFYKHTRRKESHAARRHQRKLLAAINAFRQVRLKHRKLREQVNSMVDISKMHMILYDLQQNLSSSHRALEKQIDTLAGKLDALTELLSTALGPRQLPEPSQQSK
KCa1.1 (BK), sequence (Q12791 whole entry): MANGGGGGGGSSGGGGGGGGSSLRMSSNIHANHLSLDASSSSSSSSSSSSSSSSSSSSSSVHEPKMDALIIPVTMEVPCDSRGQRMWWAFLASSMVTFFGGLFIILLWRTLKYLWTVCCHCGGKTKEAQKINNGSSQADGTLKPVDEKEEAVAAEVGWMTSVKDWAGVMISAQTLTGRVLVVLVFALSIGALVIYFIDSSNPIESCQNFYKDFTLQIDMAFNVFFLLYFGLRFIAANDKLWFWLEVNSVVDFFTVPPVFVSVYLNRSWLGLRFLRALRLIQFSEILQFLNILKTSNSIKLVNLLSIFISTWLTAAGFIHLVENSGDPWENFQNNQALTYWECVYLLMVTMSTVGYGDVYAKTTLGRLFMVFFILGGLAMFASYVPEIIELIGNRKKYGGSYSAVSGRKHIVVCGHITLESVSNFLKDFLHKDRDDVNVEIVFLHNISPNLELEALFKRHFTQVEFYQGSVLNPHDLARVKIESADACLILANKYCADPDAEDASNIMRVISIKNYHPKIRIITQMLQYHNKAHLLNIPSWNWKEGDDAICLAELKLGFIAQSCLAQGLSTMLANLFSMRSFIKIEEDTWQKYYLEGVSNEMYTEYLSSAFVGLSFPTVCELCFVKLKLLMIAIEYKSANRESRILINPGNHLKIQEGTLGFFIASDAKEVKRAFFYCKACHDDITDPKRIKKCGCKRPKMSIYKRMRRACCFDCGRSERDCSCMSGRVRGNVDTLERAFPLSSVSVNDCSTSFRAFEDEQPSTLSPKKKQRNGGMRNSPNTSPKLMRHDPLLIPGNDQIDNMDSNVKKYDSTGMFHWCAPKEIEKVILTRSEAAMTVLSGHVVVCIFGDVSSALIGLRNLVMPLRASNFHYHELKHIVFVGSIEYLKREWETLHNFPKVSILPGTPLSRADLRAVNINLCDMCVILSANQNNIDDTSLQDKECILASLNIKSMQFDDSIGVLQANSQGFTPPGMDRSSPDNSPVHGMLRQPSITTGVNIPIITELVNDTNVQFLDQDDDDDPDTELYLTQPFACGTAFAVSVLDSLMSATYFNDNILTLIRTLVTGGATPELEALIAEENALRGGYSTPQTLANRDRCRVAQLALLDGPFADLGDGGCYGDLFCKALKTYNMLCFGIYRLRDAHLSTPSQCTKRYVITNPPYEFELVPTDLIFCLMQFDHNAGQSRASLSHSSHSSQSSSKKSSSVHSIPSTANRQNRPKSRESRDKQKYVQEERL
Kv3.1, sequence (P15388 whole entry): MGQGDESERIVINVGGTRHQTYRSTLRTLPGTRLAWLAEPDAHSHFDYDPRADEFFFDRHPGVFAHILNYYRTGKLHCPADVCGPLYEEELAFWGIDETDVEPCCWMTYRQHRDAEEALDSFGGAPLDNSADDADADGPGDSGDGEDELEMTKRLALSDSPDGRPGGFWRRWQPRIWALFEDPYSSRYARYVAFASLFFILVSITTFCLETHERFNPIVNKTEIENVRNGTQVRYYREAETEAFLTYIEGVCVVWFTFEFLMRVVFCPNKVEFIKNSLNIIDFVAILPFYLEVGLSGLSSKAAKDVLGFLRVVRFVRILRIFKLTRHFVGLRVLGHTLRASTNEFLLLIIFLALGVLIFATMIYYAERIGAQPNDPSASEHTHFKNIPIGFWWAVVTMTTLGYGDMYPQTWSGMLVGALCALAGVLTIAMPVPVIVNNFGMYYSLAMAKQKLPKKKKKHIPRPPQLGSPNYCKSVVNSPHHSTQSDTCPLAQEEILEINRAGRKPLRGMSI
Nav1.4, sequence (P35499 whole entry): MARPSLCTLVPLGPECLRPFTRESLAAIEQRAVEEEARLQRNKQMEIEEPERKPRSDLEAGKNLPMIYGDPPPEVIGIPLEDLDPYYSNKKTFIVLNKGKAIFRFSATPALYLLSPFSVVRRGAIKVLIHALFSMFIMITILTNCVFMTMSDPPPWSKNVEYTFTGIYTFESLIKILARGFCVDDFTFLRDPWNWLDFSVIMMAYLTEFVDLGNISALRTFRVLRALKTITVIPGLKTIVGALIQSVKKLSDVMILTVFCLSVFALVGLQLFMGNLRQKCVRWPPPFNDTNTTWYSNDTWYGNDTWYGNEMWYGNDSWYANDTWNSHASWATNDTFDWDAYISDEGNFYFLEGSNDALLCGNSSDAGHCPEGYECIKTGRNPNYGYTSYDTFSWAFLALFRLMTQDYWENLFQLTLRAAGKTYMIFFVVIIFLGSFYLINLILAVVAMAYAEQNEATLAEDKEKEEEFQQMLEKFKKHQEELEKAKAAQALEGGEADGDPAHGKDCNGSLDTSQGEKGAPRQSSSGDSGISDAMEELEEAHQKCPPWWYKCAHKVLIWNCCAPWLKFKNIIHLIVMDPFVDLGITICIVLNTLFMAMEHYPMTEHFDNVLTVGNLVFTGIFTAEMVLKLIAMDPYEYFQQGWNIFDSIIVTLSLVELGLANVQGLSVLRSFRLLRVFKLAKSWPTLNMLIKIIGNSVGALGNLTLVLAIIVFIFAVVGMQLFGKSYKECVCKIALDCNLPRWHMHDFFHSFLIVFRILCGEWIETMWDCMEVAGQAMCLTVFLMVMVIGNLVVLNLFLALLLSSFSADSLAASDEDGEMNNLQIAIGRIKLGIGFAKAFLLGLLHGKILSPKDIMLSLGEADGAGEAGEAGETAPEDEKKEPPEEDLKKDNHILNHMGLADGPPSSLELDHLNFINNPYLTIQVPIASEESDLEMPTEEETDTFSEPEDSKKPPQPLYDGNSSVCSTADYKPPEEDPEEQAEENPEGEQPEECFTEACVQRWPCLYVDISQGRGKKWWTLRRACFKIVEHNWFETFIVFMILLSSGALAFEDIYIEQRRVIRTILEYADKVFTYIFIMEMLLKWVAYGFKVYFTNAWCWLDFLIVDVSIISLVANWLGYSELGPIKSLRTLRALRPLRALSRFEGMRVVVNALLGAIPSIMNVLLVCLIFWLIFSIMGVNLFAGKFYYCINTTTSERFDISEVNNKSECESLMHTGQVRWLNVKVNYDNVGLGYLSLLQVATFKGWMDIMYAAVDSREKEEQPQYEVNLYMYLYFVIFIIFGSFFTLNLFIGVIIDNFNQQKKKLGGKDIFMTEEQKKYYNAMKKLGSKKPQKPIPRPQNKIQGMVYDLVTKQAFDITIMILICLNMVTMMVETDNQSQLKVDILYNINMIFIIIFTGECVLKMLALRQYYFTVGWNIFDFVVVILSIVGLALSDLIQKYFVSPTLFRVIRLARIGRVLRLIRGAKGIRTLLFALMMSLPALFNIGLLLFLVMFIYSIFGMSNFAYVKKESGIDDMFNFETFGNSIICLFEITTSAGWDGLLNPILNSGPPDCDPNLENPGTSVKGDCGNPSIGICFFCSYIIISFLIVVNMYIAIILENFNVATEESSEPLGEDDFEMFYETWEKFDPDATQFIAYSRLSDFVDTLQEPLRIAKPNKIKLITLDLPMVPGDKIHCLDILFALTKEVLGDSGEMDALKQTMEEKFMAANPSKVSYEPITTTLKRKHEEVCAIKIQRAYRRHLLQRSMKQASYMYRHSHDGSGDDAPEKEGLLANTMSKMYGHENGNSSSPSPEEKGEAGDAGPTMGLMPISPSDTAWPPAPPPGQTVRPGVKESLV
Cx32 GJ channels, sequence (P08033 whole entry): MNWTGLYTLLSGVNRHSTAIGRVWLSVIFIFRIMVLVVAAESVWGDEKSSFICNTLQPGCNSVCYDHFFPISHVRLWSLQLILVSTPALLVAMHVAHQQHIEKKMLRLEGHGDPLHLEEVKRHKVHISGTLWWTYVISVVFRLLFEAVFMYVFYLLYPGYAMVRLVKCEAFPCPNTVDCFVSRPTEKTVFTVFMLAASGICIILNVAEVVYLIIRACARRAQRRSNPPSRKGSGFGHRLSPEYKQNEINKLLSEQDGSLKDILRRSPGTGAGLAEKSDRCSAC

Consider `COc1ccc(CCN2CCC(Nc3nc4ccccc4n3Cc3ccc(F)cc3)CC2)cc1` [Astemizole, reference compound], for which, on Cx50 GJ channels, the “reversibility of inhibition of Cx50 junctional currents upon washout” value is “completely reversible” and the “effect on Cx50 junctional current” value was “significant inhibition”.
For orientation: IC50 means the point on the concentration scale where inhibition reaches its midpoint. With `OC(c1ccccc1)(c1ccccc1)c1ccc(Cl)cc1` [T1, (4-Chlorophenyl)diphenylmethanol], the IC50 came out at 2.8 µM against Cx50 GJ channels and 0.53 µM on hKCa3.1 (IC50 KCa3.1 (μM), Table A1).
Take `OC(c1ccccc1)(c1ccccc1)c1cccc(Cl)c1` [T2, (3-Chlorophenyl)diphenylmethanol]: the half-inhibitory concentration (IC50) amounted to 3.6 µM on Cx50 GJ channels and 0.55 µM on hKCa3.1 (IC50 KCa3.1 (μM), Table A1).
In the case of `OC(c1ccccc1)(c1ccccc1)c1ccncc1` [T50, diphenyl-4-pyridylmethanol], the IC50 at Cx50 GJ channels is 10 µM; against hKCa3.1, > 50 µM.
`O=C(O)CC(c1ccccc1)(c1ccccc1)c1ccccc1` [T51, 3,3,3-triphenylpropionic acid]: the “IC50 Cx50 (μM)” value against Cx50 GJ channels is recorded as “No effect”. Besides, on hKCa3.1 (IC50 KCa3.1 (μM), Table A1), the IC50 turned out to be 25 µM.
Consider `FC(F)(F)Oc1cccc(NC(c2ccccc2)(c2ccccc2)c2ccccc2Cl)c1` [T102, N-[(2-Chlorophenyl)diphenylmethyl]-3-(trifluoromethoxy)aniline], for which, on Cx50 GJ channels, the “effect on Cx50 junctional current” value is given as “no effect”.
On to `FC(F)(F)Oc1ccccc1NC(c1ccccc1)(c1ccccc1)c1ccccc1Cl` [T104, N-[(2-Chlorophenyl)diphenylmethyl]-2-(trifluoromethoxy)aniline], for which the “effect on Cx50 junctional current” value at Cx50 GJ channels is recorded as “no effect”.
Consider `COc1ccc(NC(c2ccccc2)(c2ccccc2)c2ccccc2Cl)cc1` [T106, N-[(2-Chlorophenyl)diphenylmethyl]-4-methoxyaniline], for which, on Cx50 GJ channels, inhibition was half-maximal at 10 µM (IC50).
For the molecule `Clc1ccccc1C(Oc1ccccc1)(c1ccccc1)c1ccccc1` [T107, 1-Chloro-2-(phenoxydiphenylmethyl)benzene], on Cx50 GJ channels, the “effect on Cx50 junctional current” value was “no effect”.
Still for that read-out and setting: to `Clc1ccccc1C(Nc1ccccc1)(c1ccccc1)c1ccccc1` [T109, N-[(2-Chlorophenyl)diphenylmethyl]aniline] belongs “no effect”.
As for `COc1ccccc1C(O)(c1ccccc1)c1ccccc1` [T117, (2-Methoxyphenyl)diphenylmethanol], the “IC50 Cx50 (μM)” value against Cx50 GJ channels is given as “No effect”.
Broadly, the inhibition is the relative decrease from the control value, in per cent. `COc1ccccc1C(Nc1nccs1)(c1ccccc1)c1ccccc1` [T122, N-[(2-Methoxyphenyl)diphenylmethyl]-1,3-thiazol-2-amine]: the IC50 at Cx50 GJ channels is 1.2 µM; at hKCa3.1 (setting [5]), 10.2 µM; at hKCa3.1 (IC50 KCa3.1, running text) it was 10 µM. The “selectivity over other connexins as well as major neuronal and cardiac voltage-gated K+ and Na+ channels” value on Cx50 GJ channels was “at least 10 fold”. Also, the “Hill slope / Hill coefficient of Cx50 inhibition” value at Cx50 GJ channels stood at 1.6. Besides, the inhibition at 10 µM is 65 ± 10% on Kv1.1; 16 ± 4% at Kv4.2; 42 ± 3% against Kv11.1 (hERG); 32 ± 12% at Kv3.1; 11 ± 1% at Nav1.2; 28 ± 4% on Kv2.1. The inhibition at 10 µM worked out at 43 ± 4% at KCa1.1 (BK) and 52 ± 2% at Kv1.3. In the series with sodium channels, the “inhibition of sodium channels” value is < 11%. In addition, the “inhibition of most of the tested potassium channels” value in the series on potassium channels is 18–43%. In addition, the “inhibition of Cx26 GJ channel current / reduction of junction conductance” value at Cx26 GJ channels is on record as “no significant effect”. Moreover, the “inhibition of Cx32 GJ channel current / reduction of junction conductance” value on Cx32 GJ channels is on record as “no significant effect”. Besides, the “Percentage of current inhibition, Kv7.2/7.3” value at Kv7.2/7.3 is “No effect (n = 3)”. Further, in series [1], the “reversibility of reduction of junctional currents on washout” value was “reversible”. For the same molecule, in series [1], the “reduction of junctional currents in lens epithelial cells, % of the initial conductance” value was 67 ± 9%. Besides, on Nav1.4, the “Percentage of current inhibition, Nav1.4” value is on record as “No effect (n = 3)”. The “effect on Cx45 gap junction channels” value in series [2] was “no significant effect”. In the series with KCa2.3, the “Percentage of current inhibition, KCa2.3” value is reported as “No effect (n = 3)”.
For the molecule `Ic1ccccc1C(Nc1nccs1)(c1ccccc1)c1ccccc1` [T136, N-[(2-Iodophenyl)diphenylmethyl]-1,3-thiazol-2-amine], the IC50 against Cx50 GJ channels was determined as 2.4 µM; at hKCa3.1 (setting [5]) it was 1.3 µM. Besides, the “selectivity over other connexins as well as major neuronal and cardiac voltage-gated K+ and Na+ channels” value at Cx50 GJ channels is given as “at least 10 fold”. On Cx50 GJ channels, the “Hill slope / Hill coefficient of Cx50 inhibition” value is listed as 1.7. In addition, the inhibition at 10 µM is 28 ± 9% on Kv1.1; 15 ± 3% at Kv4.2; 27 ± 4% against Kv11.1 (hERG); 37 ± 16% at Kv3.1; 9 ± 0.5% at Nav1.2; 28 ± 4% on Kv2.1. Moreover, the inhibition at 10 µM at KCa1.1 (BK) came out at 26 ± 2%; on Kv1.3, 18 ± 4%. For the same molecule, in the series with sodium channels, the “inhibition of sodium channels” value was < 11%. Besides, in the series with potassium channels, the “inhibition of most of the tested potassium channels” value is reported as 18–43%. Further, the “inhibition of Cx26 GJ channel current / reduction of junction conductance” value at Cx26 GJ channels was “no significant effect”. Besides, at Cx32 GJ channels, the “inhibition of Cx32 GJ channel current / reduction of junction conductance” value is on record as “no significant effect”. On Kv7.2/7.3, the “Percentage of current inhibition, Kv7.2/7.3” value is “No effect (n = 2)”. The “reversibility of reduction of junctional currents on washout” value in series [1] is on record as “reversible”. Also, in series [1], the “reduction of junctional currents in lens epithelial cells, % of the initial conductance” value was found to be 64 ± 8%. For the same molecule, the “Percentage of current inhibition, Nav1.4” value at Nav1.4 was “No effect (n = 3)”. The “effect on Cx45 gap junction channels” value in [2] is on record as “no significant effect”. The “Percentage of current inhibition, KCa2.3” value in the series on KCa2.3 is given as “No effect (n = 3)”.
As to `FC(F)(F)Oc1ccc(NC(c2ccccc2)(c2ccccc2)c2ccccc2Cl)cc1` [T150, N-[(2-Chlorophenyl)diphenylmethyl]-4-(trifluoromethoxy)aniline], the “effect on Cx50 junctional current” value on Cx50 GJ channels is “no effect”.
With `Nc1ccccc1C(O)(c1ccccc1)c1ccccc1` [T154-OH, (2-Aminophenyl)diphenylmethanol], on Cx50 GJ channels, the “IC50 Cx50 (μM)” value is on record as “No effect”.
`c1ccc(C(c2ccccc2)c2ccncc2)cc1` [T160, diphenyl-4-pyridylmethane]: the IC50 against Cx50 GJ channels is 4 µM; on hKCa3.1, 8.6 µM.
For the molecule `COc1ccccc1C(O)(c1ccccc1)c1ccccc1OC` [T165, Bis-(2-methoxyphenyl)(phenyl)methanol], on Cx50 GJ channels, the “IC50 Cx50 (μM)” value is listed as “No effect”.
On to `c1ccc(C(c2ccccc2)c2ccccc2)cc1` [Triphenylmethane, triphenylmethane], for which the IC50 against Cx50 GJ channels is 0.9 µM; against hKCa3.1 (IC50 KCa3.1 (μM), Table A1) it was 3.7 µM.
Taken in the same sequence, the figures for `OC(c1ccccc1)(c1ccccc1)c1ccccc1` [Triphenylmethanol, triphenylmethanol] were 1 µM and 0.5 µM.
Regarding `CC1(C)[C@@H](OC(=O)CCC(=O)O)CC[C@]2(C)[C@H]3C(=O)C=C4[C@@H]5C[C@@](C)(C(=O)O)CC[C@]5(C)CC[C@@]4(C)[C@]3(C)CC[C@@H]12` [carbenoxolone], the IC50 at P2x7 receptors was 0.175 µM; in the series with pannexin channels, 2 to 5 µM; in [3], ~5 µM; in the series on Cx26 hemichannel, 21 µM; in the series with Cx38 hemichannel, 34 µM; in [4] it was 48 µM.
As to `O=c1c(O)c(-c2ccc(O)c(O)c2)oc2cc(O)cc(O)c12` [quercetin, reference compound], the “effect on Cx50 junctional current” value at Cx50 GJ channels is recorded as “no effect”.
As for `C[C@@H]1O[C@@H](OC[C@H]2O[C@@H](Oc3c(-c4ccc(O)c(O)c4)oc4cc(O)cc(O)c4c3=O)[C@H](O)[C@@H](O)[C@@H]2O)[C@H](O)[C@H](O)[C@H]1O` [rutin, reference compound], on Cx50 GJ channels, the “reversibility of inhibition of Cx50 junctional currents upon washout” value is on record as “only partially reversible” and the “effect on Cx50 junctional current” value was “significant inhibition”.
